How the values were obtained:
db/db mice = assay: Antidyslipidemic activity in db/db mice; type: in vivo, mouse (C57BL/KsBom-db); conditions: for % Fall in lipid levels HDL: serum HDL-cholesterol; for % Fall in lipid levels Chol.: serum cholesterol; for % Fall in lipid levels TG: serum triglycerides
Excerpt: The db/db mouse is a well-characterized model of […]. The background for the db/db mouse is the C57BL/Ks strain. The major deficiency of the C57BL/KsBom-db mouse (db/db) is lack of a functional leptin receptor. This leads to defective leptin signaling and a complete lack of feedback from leptin. […] The db/db mouse develops NIDDM from around week 10. The disease is stable until week 20, where destruction of pancreatic β-cells can be recognized clinically as decreasing levels of plasma insulin and very severe hyperglycemia. The male mice are more diabetic than female and will normally die earlier. The advantage of using male mice for experimental purposes is that the fluctuations in plasma parameters are less than in the females where the estrogen cycle affects the clinical diabetes mellitus. The optimal age of db/db mice used for experiments will be from week 12 to 18 when they have developed NIDDM with diabetic dyslipidemia but still have functional β-cells in the pancreas. C57BL/KsBom-db mice 12-18 weeks, 40-50 g bred in the animal house of CDRI, Lucknow. 10 male mice were used in the experiments. The mice were housed in groups of 5 individuals in a room controlled for temperature (23±2° C.) and 12/12 hours light/dark cycle (lights on at 6.00 am). Body weight was measured daily from day 1 to day 10. All animals had free access to fresh water and to normal chow except on the days of the postprandial protocol day 6 and during the overnight fast before the OGTT on day 10. Blood glucose was checked every morning up till day 5. On day 6 postprandial protocol was employed, in this method blood glucose was checked at −0.30 min and 0 h. Test compounds were given to the treatment group whereas control group received only gum acacia (1.0%); the blood glucose was again checked at 1, 2, 3, 4 and 6 h post test compound treatment. Finally on day 10 an oral glucose tolerance test (OGTT) was performed after an overnight fasting. Blood glucose was measured at −0.30 min and test drugs were fed, blood glucose was again measured at 0.0 min post treatment, at this juncture glucose solution was given at a dose of 3 gm/kg to all the groups including control group; the profile of blood glucose was checked at 30 min, 60 min, 90 min and 120 min post glucose administration. Quantitative glucose tolerance of each animal was calculated by Area Under Curve (AUC) method (Prism Software). Comparing the AUC of experimental and control groups determined the percentage antihyperglycemic activity. Statistical comparison was made by Dunnett's test.
Cholesterol and triglycerides were estimated using the same procedures as given above.
HDL-Cholesterol was estimated using the kit provided by the Roche Diagnostics. Cholestest N HDL is a liquid reagent that directly measures the HDL-cholesterol concentration in serum by a new method that is based on the selective solubilising effect of proprietary detergent to the different lipoproteins. In the assay system, only HDL is solubilised by a special detergent; other lipoproteins are not disturbed. After HDL is selectively disrupted, HDL cholesterol is measured enzymatically (Gordon, T.; Casstelli, W. P.; Hjortland, M. C.; Kannel, W. B.; Dawber, T. R. High density lipoproteins as a protective factor against coronary heart disease, Am. J. Med. 1977, 62, 707-714.).

[1] = test system: streptozotocin-induced diabetic rats; assay: Sucrose-challenged streptozotocin-induced diabetic rats (STZ-S), antihyperglycemic activity; type: in vivo, rat (Sprague Dawley); conditions: for activity in STZ model: summary statement
Description: Male albino rats of Sprague Dawley strain of body weight […] were selected for this study. Streptozotocin (Sigma, USA) was dissolved in 100 mM citrate buffer pH 4.5 and calculated amount of the fresh solution was injected to overnight fasted rats (45 mg/kg) intraperitoneally. Blood glucose level was checked 48 h later by glucostrips and animals showing blood glucose values between 144 to 270 mg/dl (8 to 15 mM) were included in the experiment and termed diabetic. The diabetic animals were divided into groups consisting of five to six animals in each group. Animals of experimental groups were administered suspension of the desired test samples orally (made in 1.0% gum acacia) at a dose of 100-mg/kg-body weight. Animals of control group were given an equal amount of 1.0% gum acacia. A sucrose load of 2.5-g/kg body weight was given after 30 minutes of compound administration. After 30 minutes of post sucrose load blood glucose level was again checked by glucostrips at 30, 60, 90, 120, 180, 240, 300 min and at 24 h, respectively. Animals not found diabetic after 24 hours post treatment of the test sample were not considered and omitted from the calculations and termed as non-responders. […] Food but not water was withheld from the cages during the experimentation. Comparing the AUC of experimental and control groups determined the percent antihyperglycemic activity. Statistical comparison between groups was made by Student's ‘t’ test.

[2] = 100 mg/kg oral, sucrose load 2.5 g/kg, AUC vs control

Compound	% Fall in lipid levels HDL (db/db mice)	% Fall in lipid levels Chol. (db/db mice)	% Fall in lipid levels TG (db/db mice)	% Fall in blood glucose levels STZ-S 24 h [1, 2]	activity in STZ model [1]	% Fall in blood glucose levels STZ-S 5 h ([1]; 100 mg/kg oral, sucrose load 2.5 g/kg, AUC vs control, 5 h)
CC(C)(C)NCC(O)COc1ccc(C(=O)/C=C/c2ccc3c(c2)OCO3)cc1 (stereo not drawn) [Compound 34, 4′-[^3-tert-Butylamino-2-hydroxy-propoxy]-3,4-methylenedioxy-chalcone]	+1.76%	40.3%	+7.44%	23.0%	significant results	
O=C1NC(=O)/C(=C\c2ccc(OCCCCCOc3cccc(C(=O)/C=C/c4ccc5c(c4)OCO5)c3)cc2)S1 [Compound 46, 3,4-Methylenedioxy-3′-{5-[4-(thiazolidin-2,4-dione-5-ylidinemethyl)-phenoxy]-pentyloxy}-chalcone]	21.4%	18.9%	6.76%	7.18%		11.8%
COc1ccc(/C=C/C(=O)c2ccc(OCC(O)CN3CCN(c4ccccc4)CC3)cc2)cc1OC (stereo not drawn) [Compound 18, 3,4-Dimethoxy-4′-[2-hydroxy-3-(4-phenylpiperazin-1-yl)-propoxy]-chalcone]	11.8%	1.36%	+5.20%	20.3%	significant results	

Source: patent publication US7807712B2, “Oxy substituted chalcones as antihyperglycemic and antidyslipidemic agents” (priority 2004, dated 2010)
